Columns and labels:
Experiment in all cases: Kinase profiling in a biochemical assay panel (mobility shift assays and ELISA), %-inhibition at 1 μM; selectivity entropy
[1] = biological target: panel of more than 300 wild-type and mutant kinases (313 kinase panel) (Homo sapiens, UniProt P51617); settings: kinase IRAK1; compound at 1 μM
[2] = biological target: panel of more than 300 wild-type and mutant kinases (313 kinase panel) (Homo sapiens, UniProt Q13153); settings: kinase PAK1; 1 μM
[3] = biological target: panel of more than 300 wild-type and mutant kinases (313 kinase panel) (Homo sapiens, UniProt Q13164); settings: kinase Erk5; compound at 1 μM
[4] = biological target: panel of more than 300 wild-type and mutant kinases (313 kinase panel) (Homo sapiens, UniProt Q9Y2H1); settings: kinase NDR2; 1 μM
[5] = biological target: panel of more than 300 wild-type and mutant kinases (313 kinase panel) (Homo sapiens, UniProt Q16644); settings: kinase MAPKAPK3; compound at 1 μM
[6] = biological target: T1, panel of more than 300 wild-type and mutant kinases (313 kinase panel) (Homo sapiens, UniProt Q9H093); settings: kinase NuaK2; 1 μM
T1 sequence (Q9H093 1-628): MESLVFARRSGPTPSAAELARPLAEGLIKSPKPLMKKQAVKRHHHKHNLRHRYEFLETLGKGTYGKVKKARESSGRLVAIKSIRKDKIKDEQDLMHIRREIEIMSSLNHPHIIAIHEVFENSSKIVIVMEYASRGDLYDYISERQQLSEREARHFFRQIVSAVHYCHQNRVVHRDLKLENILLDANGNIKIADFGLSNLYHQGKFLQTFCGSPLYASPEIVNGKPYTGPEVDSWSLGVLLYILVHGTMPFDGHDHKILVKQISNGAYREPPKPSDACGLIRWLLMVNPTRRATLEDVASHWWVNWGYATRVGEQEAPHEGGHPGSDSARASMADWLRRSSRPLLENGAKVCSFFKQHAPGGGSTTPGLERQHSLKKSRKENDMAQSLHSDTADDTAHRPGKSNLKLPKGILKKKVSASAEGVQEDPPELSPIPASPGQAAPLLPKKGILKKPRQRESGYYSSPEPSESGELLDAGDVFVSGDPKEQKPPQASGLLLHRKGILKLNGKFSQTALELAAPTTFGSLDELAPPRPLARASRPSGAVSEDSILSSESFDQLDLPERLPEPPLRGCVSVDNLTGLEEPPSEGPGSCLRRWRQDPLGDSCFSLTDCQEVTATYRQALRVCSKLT

[7] = biological target: T2, panel of more than 300 wild-type and mutant kinases (313 kinase panel) (Homo sapiens, UniProt P00540); settings: kinase MOS; 1 μM
T2 sequence (P00540 1-346): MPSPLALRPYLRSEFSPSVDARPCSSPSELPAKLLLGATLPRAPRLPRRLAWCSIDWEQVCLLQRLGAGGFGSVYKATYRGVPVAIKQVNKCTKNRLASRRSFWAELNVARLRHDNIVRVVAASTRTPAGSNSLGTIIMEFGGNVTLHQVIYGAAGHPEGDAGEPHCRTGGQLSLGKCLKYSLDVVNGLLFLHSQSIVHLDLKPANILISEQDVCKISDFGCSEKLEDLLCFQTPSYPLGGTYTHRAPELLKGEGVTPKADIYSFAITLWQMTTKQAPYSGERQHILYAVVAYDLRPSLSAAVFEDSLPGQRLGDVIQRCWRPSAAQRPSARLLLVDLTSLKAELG

[8] = biological target: panel of more than 300 wild-type and mutant kinases (313 kinase panel) (Homo sapiens, UniProt Q9H4A3); settings: kinase WNK1; compound at 1 μM
[9] = biological target: panel of more than 300 wild-type and mutant kinases (313 kinase panel) (Homo sapiens, UniProt O96013); settings: kinase PAK4; 1 μM

panel of more than 300 wild-type and mutant kinases (313 kinase panel) (Homo sapiens, UniProt Q9H4A3), sequence (Q9H4A3 whole entry, change not shown): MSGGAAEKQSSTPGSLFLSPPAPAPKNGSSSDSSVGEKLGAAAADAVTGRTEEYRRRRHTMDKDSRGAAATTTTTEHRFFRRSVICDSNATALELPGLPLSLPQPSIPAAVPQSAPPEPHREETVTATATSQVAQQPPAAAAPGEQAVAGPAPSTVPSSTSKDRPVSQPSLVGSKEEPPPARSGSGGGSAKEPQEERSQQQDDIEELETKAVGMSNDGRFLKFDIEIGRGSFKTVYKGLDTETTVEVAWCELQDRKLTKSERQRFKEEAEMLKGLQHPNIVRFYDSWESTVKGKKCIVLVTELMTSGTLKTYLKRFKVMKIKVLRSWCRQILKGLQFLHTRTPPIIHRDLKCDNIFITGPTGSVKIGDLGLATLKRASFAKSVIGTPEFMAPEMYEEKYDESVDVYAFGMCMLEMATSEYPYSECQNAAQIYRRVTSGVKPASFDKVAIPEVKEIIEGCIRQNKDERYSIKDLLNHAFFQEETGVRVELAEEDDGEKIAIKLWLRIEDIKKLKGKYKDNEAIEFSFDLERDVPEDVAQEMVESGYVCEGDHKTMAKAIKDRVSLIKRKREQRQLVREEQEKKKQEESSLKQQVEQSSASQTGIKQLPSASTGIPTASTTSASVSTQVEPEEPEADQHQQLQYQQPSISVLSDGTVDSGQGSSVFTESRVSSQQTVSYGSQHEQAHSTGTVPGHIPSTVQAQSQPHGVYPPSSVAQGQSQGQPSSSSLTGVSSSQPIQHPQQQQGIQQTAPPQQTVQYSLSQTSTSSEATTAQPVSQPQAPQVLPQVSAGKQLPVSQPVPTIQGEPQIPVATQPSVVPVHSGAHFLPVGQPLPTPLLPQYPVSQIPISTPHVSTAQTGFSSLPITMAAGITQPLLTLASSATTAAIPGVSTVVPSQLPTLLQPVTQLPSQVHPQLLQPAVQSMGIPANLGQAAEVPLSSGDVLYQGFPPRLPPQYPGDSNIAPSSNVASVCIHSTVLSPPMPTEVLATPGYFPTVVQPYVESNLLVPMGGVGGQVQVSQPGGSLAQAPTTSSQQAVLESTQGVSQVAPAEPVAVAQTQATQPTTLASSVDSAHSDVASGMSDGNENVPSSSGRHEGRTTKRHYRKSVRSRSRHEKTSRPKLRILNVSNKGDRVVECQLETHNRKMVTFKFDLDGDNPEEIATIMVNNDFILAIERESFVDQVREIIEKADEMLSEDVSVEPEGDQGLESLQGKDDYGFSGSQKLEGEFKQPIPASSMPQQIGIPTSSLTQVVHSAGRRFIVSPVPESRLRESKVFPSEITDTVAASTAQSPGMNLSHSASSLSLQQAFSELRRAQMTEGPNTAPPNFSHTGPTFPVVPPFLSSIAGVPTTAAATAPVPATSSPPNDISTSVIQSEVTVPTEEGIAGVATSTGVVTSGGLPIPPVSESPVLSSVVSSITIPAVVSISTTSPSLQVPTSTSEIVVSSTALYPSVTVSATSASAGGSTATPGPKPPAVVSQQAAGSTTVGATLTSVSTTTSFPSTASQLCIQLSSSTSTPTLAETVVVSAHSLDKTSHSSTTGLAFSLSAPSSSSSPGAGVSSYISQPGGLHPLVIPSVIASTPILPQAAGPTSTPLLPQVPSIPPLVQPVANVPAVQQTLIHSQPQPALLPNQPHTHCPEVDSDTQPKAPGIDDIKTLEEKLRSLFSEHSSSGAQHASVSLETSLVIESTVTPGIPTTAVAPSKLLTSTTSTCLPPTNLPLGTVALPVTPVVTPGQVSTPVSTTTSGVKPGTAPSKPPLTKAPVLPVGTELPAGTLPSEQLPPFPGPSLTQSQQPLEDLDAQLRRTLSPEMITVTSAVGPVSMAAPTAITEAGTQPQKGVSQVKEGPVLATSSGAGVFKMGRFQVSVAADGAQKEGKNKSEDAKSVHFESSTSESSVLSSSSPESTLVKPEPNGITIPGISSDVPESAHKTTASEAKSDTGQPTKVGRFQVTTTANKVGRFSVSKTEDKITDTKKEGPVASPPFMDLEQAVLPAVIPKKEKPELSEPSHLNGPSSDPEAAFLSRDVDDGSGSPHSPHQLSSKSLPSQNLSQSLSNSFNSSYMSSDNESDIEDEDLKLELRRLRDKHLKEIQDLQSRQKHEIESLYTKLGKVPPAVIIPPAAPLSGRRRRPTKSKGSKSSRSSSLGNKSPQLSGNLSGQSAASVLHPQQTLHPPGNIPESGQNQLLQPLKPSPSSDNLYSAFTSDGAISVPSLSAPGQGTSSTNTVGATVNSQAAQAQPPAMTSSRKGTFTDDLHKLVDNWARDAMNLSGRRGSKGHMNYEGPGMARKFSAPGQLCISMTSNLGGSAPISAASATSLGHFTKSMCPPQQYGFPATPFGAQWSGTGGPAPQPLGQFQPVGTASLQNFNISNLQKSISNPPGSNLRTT
panel of more than 300 wild-type and mutant kinases (313 kinase panel) (Homo sapiens, UniProt Q9Y2H1), sequence (Q9Y2H1 whole entry, change not shown): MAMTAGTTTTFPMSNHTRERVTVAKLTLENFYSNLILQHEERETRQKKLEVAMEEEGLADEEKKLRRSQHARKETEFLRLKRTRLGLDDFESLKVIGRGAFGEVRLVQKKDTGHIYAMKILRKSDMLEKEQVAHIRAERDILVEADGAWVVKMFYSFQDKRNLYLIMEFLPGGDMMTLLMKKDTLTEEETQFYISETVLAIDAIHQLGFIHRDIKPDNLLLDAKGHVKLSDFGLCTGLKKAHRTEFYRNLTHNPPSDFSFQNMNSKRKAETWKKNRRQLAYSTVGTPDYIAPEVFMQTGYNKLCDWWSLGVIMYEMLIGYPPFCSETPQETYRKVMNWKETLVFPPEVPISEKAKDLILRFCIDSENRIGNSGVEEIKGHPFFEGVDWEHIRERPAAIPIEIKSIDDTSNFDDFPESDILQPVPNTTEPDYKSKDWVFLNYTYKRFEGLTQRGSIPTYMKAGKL
panel of more than 300 wild-type and mutant kinases (313 kinase panel) (Homo sapiens, UniProt Q16644), sequence (Q16644 whole entry, change not shown): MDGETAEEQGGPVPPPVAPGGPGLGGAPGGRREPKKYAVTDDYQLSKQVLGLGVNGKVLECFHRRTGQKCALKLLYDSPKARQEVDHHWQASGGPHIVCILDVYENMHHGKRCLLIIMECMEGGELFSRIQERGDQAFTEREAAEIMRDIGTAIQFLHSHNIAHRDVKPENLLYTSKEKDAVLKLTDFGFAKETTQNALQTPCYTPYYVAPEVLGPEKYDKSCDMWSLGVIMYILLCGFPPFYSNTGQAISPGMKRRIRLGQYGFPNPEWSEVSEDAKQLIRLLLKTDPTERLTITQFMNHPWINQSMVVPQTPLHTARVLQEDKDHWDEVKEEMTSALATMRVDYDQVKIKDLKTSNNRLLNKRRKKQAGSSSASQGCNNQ

Question: Which results are given for `COc1cc2c(Nc3ccc(Br)cc3F)ncnc2cc1OCC1CCN(C)CC1` [vandetanib]?
Answer: %-inhibition of IRAK1 [1]: 46%; %-inhibition of PAK1 [2]: -5.28%; %-inhibition of Erk5 [3]: 9%; %-inhibition of NDR2 [4]: -9%; %-inhibition of MAPKAPK3 [5]: -2%; %-inhibition of NuaK2 [6]: -14%; %-inhibition of MOS [7]: 9%; %-inhibition of WNK1 [8]: -2.36%; %-inhibition of PAK4 [9]: -11%

Question: For `CCCS(=O)(=O)Nc1ccc(F)c(C(=O)c2c[nH]c3ncc(-c4ccc(Cl)cc4)cc23)c1F` [vemurafenib], which “%-inhibition of IRAK1” value [1] is on record?
Answer: 10%

Question: And the “%-inhibition of PAK1” value [2]?
Answer: -5%

Question: What about the “%-inhibition of Erk5” value [3] of the same compound?
Answer: 0.709%

Question: What about the “%-inhibition of NDR2” value [4] of the same compound?
Answer: -2.51%

Question: What about the “%-inhibition of MAPKAPK3” value [5] of the same compound?
Answer: 12%

Question: What about the “%-inhibition of NuaK2” value [6] of the same compound?
Answer: 4.36%

Question: What about the “%-inhibition of MOS” value [7] of the same compound?
Answer: 10%

Question: And the “%-inhibition of WNK1” value [8]?
Answer: 10%

Question: And the “%-inhibition of PAK4” value [9]?
Answer: -7%

From publication PMC3961306, “Comparison of the Cancer Gene Targeting and Biochemical Selectivities of All Targeted Kinase Inhibitors Approved for Clinical Use” (PLoS ONE, 2014)
